Laboratory results as given in ChEMBL document CHEMBL2169885, “Synthesis and biological evaluation of optically active Ki16425” (Bioorg Med Chem Lett, 2012).
Active and inactive are the calls of the source. The rule behind the calls is not given here.

Key:
PC-3 = assay: Antagonist activity at LPA receptor in human PC3 cells assessed as inhibition of LPA-induced cell migration; type: functional, cell-based
[1] = target: Lysophosphatidic acid receptor 2 (Homo sapiens) (UniProt Q9HBW0); assay: Antagonist activity at human LPA2 receptor expressed in HEK293 cells assessed as inhibition of LPA-induced AP-TGF-alpha release treated 5 mins before LPA addition measured after 60 mins; type: functional, cell-based
Sequence of Lysophosphatidic acid receptor 2 (Homo sapiens) (Q9HBW0 whole entry): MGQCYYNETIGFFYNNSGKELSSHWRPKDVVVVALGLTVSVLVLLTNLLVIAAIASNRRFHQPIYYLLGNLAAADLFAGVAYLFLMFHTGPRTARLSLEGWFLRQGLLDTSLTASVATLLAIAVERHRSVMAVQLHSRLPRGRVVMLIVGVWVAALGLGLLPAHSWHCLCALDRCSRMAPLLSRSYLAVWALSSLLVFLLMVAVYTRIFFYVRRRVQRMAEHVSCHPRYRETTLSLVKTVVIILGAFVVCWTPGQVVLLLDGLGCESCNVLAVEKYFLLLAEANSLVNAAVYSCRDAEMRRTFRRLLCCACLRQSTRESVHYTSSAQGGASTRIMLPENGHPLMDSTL

`Cc1noc(-c2ccc(CSCCC(=O)O)cc2)c1NC(=O)O[C@@H](C)c1ccccc1Cl` was tested, and the inhibition (PC-3) was “Active” and the inhibition [1] was “Active”.

With `Cc1noc(-c2ccc(CSCCC(=O)O)cc2)c1NC(=O)OC(C)c1ccccc1Cl` (racemic) the inhibition (PC-3) was “Active” and the inhibition [1] was “Active”.

With `Cc1noc(-c2ccc(CSCCC(=O)O)cc2)c1NC(=O)O[C@H](C)c1ccccc1Cl` the inhibition (PC-3) was “Active” and the inhibition [1] was “Active”.
